For 14 compounds, IC50 results are on record in patent US9079906B2, “Triazolopyridazines as PAR1 inhibitors, production thereof, and use as medicaments” (Sanofi, priority 2008, dated 2015).

Test [1] concerns the target T1, PAR1 (Homo sapiens (Human), UniProt P25116). The test is described as follows: Inhibition of PAR1-mediated platelet aggregation induced by TRAP. It is filed as cell-based. To be noted: TRAP-induced aggregation of washed platelets from healthy volunteer donors, 96-well format. How it is done: PAR1 determination method: inhibition of PAR1-mediated platelet aggregation
The pharmacological testing of the substances took place in platelet aggregation induced by TRAP (thrombin receptor-activating peptide) in 96-well format. For this purpose, blood was taken from healthy volunteer donors in 20 ml syringes containing 2 ml of 3.13% sodium citrate solution. After centrifugation at 150×g for 20 minutes, the platelet-rich plasma (PRP) was separated off and mixed with 1 μl of PGE1 solution (500 μg/ml in ethanol)/ml of PRP. Incubation at RT for 5 minutes was followed by centrifugation at 120×g for 15 minutes to remove the leukocytes. The leukocyte-free PRP was transferred in 5 ml portions into 15 ml PP tubes and centrifuged at 360×g for 15 minutes in order to pellet the platelets. The plasma was then decanted off and the platelet sediment from 5 ml of PRP was resuspended in 1 ml of Tyrode's (120 mM NaCl, 2.6 mM KCl, 12 mM NaHCO3, 0.39 mM NaH2PO4×H2O, 10 mM HEPES, 0.35% BSA, 5.5 mM glucose, pH 7.4) and adjusted with Tyrode's to a platelet count of 3×10^5/microliter (μL). 13 ml of this cell suspension were then mixed with 866 μL of 10 mM CaCl2 solution, and 120 μL thereof were pipetted into each well of a 96-well plate containing 15 μL of the substance to be tested. After incubation at room temperature in the dark for 30 minutes, 15 μL of a TRAP solution (70-100 μM) were added as agonist, and kinetics were recorded at 650 nm in a SpectraMax 340 at 37° C. for 20 minutes while shaking. The areas under the curves of negative control (Tyrode's/DMSO) and positive control (15 μl of agonist/DMSO) were calculated and the difference was fixed as the 100% value. The substances to be tested were pipetted as serial dilutions in duplicate determination, the AUC was likewise determined for each substance concentration, and the % inhibition of the AUC compared with the control was calculated. On the basis of the % inhibition, the IC50 was calculated by nonlinear regression analysis according to the 4-parameter equation.

Test [2] deals with T1, PAR1. The test is described as follows: PAR1 binding test (radioligand displacement, membrane preparation). The conditions noted are these: human PAR1 expressed in High Five insect cell membranes; radioligand 20 nM; read-out: Inhibition of binding IC50. The method, then: The synthesized substances were examined in a PAR1 binding test. This tested whether the substances can inhibit the binding of a radioactively labeled PAR1 agonist known from the literature at the PAR1 receptor (Ho-Sam Ahn, Mol Pharm, 51:350-356, 1997). The human PAR1 receptor was expressed transiently in High Five insect cells. From these cells, after 48 hours, a membrane preparation was produced by standard methods, aliquoted into 10 mM Tris-HCl; 0.3 mM EDTA; 1 mM EGTA; 250 mM sucrose pH 7.5, and stored at −80° C.
The substances were preincubated with the membrane at room temperature for 15 minutes, then the radioligand (ALA-(para-F-Phe)-Arg-ChA-homoArg-(3,4-^3H-Tyr)-NH2; approx. 40 Ci/mMol) was added. The end concentration of the radioligand in the test buffer (50 mM Tris-HCl; 10 mM MgCl2; 1 mM EGTA; 0.1% BSA; 2% DMSO) was 20 nM, that of the membrane 1 mg/ml. After an incubation time of 60 minutes, 25 μL of the mixture were transferred to a 96-well MultiScreenHTS FB microtiter filtration plate (from Millipore), which had been pretreated beforehand with a 0.75% aqueous polyethyleneimine solution for 5 hours at room temperature. Thereafter, with vacuum extraction, each well was washed four times with 300 μL of buffer (50 mM Tris-HCl; 10 mM MgCl2; 1 mM EGTA). The plate was then dried overnight, 100 μl of scintillator per well were added, and the plate was analyzed after 6 hours in a Wallac MicroBeta (from PerkinElmer) liquid scintillation counter. The nonspecific binding was determined in the presence of 100 μM SCH79797 (PAR-1 antagonist; from Tocris, Cat. No. 1592) and subtracted from all measurements. The 100% value used was a control without inhibitor. The % inhibition values of a substance dilution series were used to calculate the IC50 with the aid of nonlinear regression analysis according to the 4-parameter equation.
A general note: Displacement assays read how much labelled ligand stays bound in the presence of the test substance.

Where a name gives a salt, the structure may show the parent alone.

T1 sequence (P25116 22-425): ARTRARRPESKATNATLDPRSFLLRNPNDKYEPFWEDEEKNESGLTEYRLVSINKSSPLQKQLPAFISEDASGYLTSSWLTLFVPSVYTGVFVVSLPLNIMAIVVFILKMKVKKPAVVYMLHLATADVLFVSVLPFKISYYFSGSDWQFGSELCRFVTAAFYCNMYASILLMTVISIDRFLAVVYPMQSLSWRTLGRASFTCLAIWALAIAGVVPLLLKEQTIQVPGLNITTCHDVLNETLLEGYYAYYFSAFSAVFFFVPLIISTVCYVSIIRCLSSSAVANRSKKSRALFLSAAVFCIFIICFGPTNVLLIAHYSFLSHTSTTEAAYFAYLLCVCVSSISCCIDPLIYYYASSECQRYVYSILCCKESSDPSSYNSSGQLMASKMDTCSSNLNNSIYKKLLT

By IC50 is commonly meant the concentration that gives 50% inhibition. Take `CCOc1ccc2nn(CC(=O)c3cc(NC(C)=O)cc(S(F)(F)(F)(F)F)c3)c(=N)n2n1` [Example 1, N-[3-[2-(6-Ethoxy-3-imino-[1,2,4]triazolo[4,3-b]pyridazin-2-yl)acetyl]-5-(pentafluorosulfanyl)phenyl]acetamide as the trifluoroacetic acid salt]: at PAR1 [1], the IC50 came to 650 nM. Same read-out and setting: next, `CC(C)(C)c1cc(C(=O)Cn2nc3ccc(Cl)nn3c2=N)cc(C(C)(C)C)c1O` [Example 2, 2-(6-chloro-3-imino-[1,2,4]triazolo[4,3-b]pyridazin-2-yl)-1-(3,5-di-tert-butyl-4-hydroxyphenyl)ethanone]: 1600 nM.

Take `CCOc1ccc2nn(CC(=O)c3cc(N4CCOCC4)c(OC)c(C(F)(F)F)c3)c(=N)n2n1` [Example 5, 2-(6-Ethoxy-3-imino-[1,2,4]triazolo[4,3-b]pyridazin-2-yl)-1-(4-methoxy-3-morpholin-4-yl-5-trifluormethylphenyl)ethanone trifluoroacetic acid salt]: the IC50 at PAR1 [1] was 8500 nM. As for `CCOc1ccc2nn(CC(=O)c3cc(N4CCOCC4)c(OC)c(C(C)(C)C)c3)c(=N)n2n1` [Example 7, 1-(3-tert-butyl-4-methoxy-5-morpholin-4-ylphenyl)-2-(6-ethoxy-3-imino-[1,2,4]triazolo[4,3-b]pyridazin-2-yl)ethanone trifluoroacetic acid salt], the IC50 on PAR1 [1] was 158 nM. The same measure, in the same setting: next, `CCC(CC)Oc1ccc2nn(CC(=O)c3cc(NC)cc(S(F)(F)(F)(F)F)c3)c(=N)n2n1` [Example 16, 2-[6-(1-ethylpropoxy)-3-imino-[1,2,4]triazolo[4,3-b]pyridazin-2-yl]-1-[3-methylamino-5-(pentafluorosulfanyl)phenyl]ethanone trifluoroacetic acid salt]: 127 nM; `CCC(CC)Oc1cc(C)c2nn(CC(=O)c3cc(OCCOC)cc(C(C)(C)C)c3)c(=N)n2n1` [Example 66, 1-[3-tert-butyl-5-(2-methoxy-ethoxy)phenyl]-2-[6-(1-ethylpropoxy)-3-imino-8-methyl-[1,2,4]triazolo[4,3-b]pyridazin-2-yl]ethanone hydrochloride]: 25 nM. `CCC(CC)Oc1cc(C)c2nn(CC(=O)c3cc(COCCCO)cc(C(C)(C)C)c3)c(=N)n2n1` [Example 77, 1-[3-tert-butyl-5-(3-hydroxy-propoxymethyl)phenyl]-2-[6-(1-ethylpropoxy)-3-imino-8-methyl-[1,2,4]triazolo[4,3-b]-pyridazin-2-yl]ethanone hydrochloride] registered a half-inhibitory concentration (IC50) against PAR1 [1] of 9 nM. On PAR1 [1], `CCC(CC)Oc1nn2c(=N)n(CC(=O)c3cc(OC)cc(S(F)(F)(F)(F)F)c3)nc2c(C)c1C` [Example 85, 2-[6-(1-ethylpropoxy)-3-imino-7,8-dimethyl-[1,2,4]triazolo[4,3-b]pyridazin-2-yl]-1-[3-methoxy-5-(pentafluorosulfanyl)-phenyl]ethanone trifluoroacetic acid salt] returned a half-inhibitory concentration (IC50) of 59 nM.

On to `CCC(CC)Oc1cc(C)c2nn(CC(=O)c3cc(OCCCO)cc(C(C)(C)C)c3)c(=N)n2n1` [Example 90, 1-[3-tert-butyl-5-(3-hydroxy-propoxy)phenyl]-2-[6-(1-ethyl-propoxy)-3-imino-8-methyl-[1,2,4]triazolo[4,3-b]pyridazin-2-yl]ethanone hydrochloride], for which the IC50 against PAR1 [1] was 12 nM. Compound `COCC(COC)Oc1cc(C)c2nn(CC(=O)c3cc(OCCO)cc(C(C)(C)C)c3)c(=N)n2n1` [Example 98, 1-[3-tert-butyl-5-(2-hydroxy-ethoxy)phenyl]-2-[3-imino-6-(2-methoxy-1-methoxymethyl-ethoxy)-8-methyl-[1,2,4]triazolo[4,3-b]pyridazin-2-yl]ethanone hydrochloride] gave a half-maximal inhibitory concentration (IC50) at PAR1 [1] of 334 nM. Turning to `CCN(CC)c1cc(C)c2nn(CC(=O)c3cc(OC)cc(S(F)(F)(F)(F)F)c3)c(=N)n2n1` [Example 108, 2-(6-diethylamino-3-imino-8-methyl-[1,2,4]triazolo[4,3-b]pyridazin-2-yl)-1-[3-methoxy-5-(pentafluorosulfanyl)phenyl]-ethanone trifluoroacetic acid salt], the IC50 on PAR1 [1] came to 16 nM. With `Cc1cc(OCC2(C)COC2)nn2c(=N)n(CC(=O)c3cc(OCCO)cc(C(C)(C)C)c3)nc12` [Example 236, 1-[3-tert-butyl-5-(2-hydroxy-ethoxy)phenyl]-2-[3-imino-8-methyl-6-(3-methyloxetan-3-ylmethoxy)-[1,2,4]triazolo[4,3-b]-pyridazin-2-yl]ethanone hydrobromide], on PAR1 [2], the 50% inhibitory concentration (IC50) is 1400 nM. With `CCNC(=O)c1nn2/c(=N/C)n(CC(=O)c3cc(OCCCO)c(OC)c(C(C)(C)C)c3)nc2c(C)c1C` [Example 239, N-ethyl-2-{2-[3-tert-butyl-5-(3-hydroxypropoxy)-4-methoxy-phenyl]-2-oxoethyl}-7,8-dimethyl-3-[(E)-methylimino]-2,3-dihydro-[1,2,4]triazolo[4,3-b]pyridazine-6-carboxamide hydrochloride], on PAR1 [2], the half-maximal inhibitory concentration (IC50) was 113 nM. Take `CC(C)Oc1cc(OC(C)C)c2nn(CC(=O)c3cc(OCCO)cc(C(C)(C)C)c3)c(=N)n2n1` [Example 240, 1-[3-tert-butyl-5-(2-hydroxy-ethoxy)phenyl]-2-(3-imino-6,8-diisopropoxy-[1,2,4]triazolo[4,3-b]pyridazin-2-yl)ethanone hydrochloride]: the half-maximal inhibitory concentration (IC50) at PAR1 [2] amounted to 484 nM.
